According to article PMC4547793, “Trichodysplasia spinulosa-Associated Polyomavirus Uses a Displaced Binding Site on VP1 to Engage Sialylated Glycolipids” (PLoS Pathogens, 2015):

What was measured:
Format in all cases: binding
TSPyV VP1 [1] = target: T1, TSPyV VP1 (Trichodysplasia spinulosa-associated polyomavirus, UniProt E2ESL7); assay: X-ray crystal structure, soaked ([…] Å); details: 10 mM glycan, 15 min soak of native crystals, reservoir pH 5.0; BC2-loop site with ccw DE-loop
T1 construct: N- and C-terminally truncated VP1 (aa 31-304), pET28b, E. coli BL21(DE3); unassembled homopentamer

TSPyV VP1 [2] = target: T1, TSPyV VP1; assay: X-ray co-crystal structure ([…] Å); also STD NMR; details: 10 mM glycan, co-crystallization, 20 °C, reservoir pH 5.0; STD NMR pH 7.4, 288 K; BC2-loop site with ccw DE-loop
TSPyV VP1 [3] = target: T1, TSPyV VP1; assay: X-ray co-crystal structure ([…] Å); details: 10 mM glycan, co-crystallization, 20 °C, reservoir pH 5.0; BC2-loop site with ccw DE-loop

## CC(=O)N[C@H]1[C@H]([C@H](O)[C@H](O)CO)O[C@@](O[C@H]2[C@@H](O)[C@@H](CO)O[C@@H](O[C@H]3[C@H](O)[C@@H](O)C(O)O[C@@H]3CO)[C@@H]2O)(C(=O)O)C[C@@H]1O (stereo partly drawn) [3’SL]
TSPyV VP1 [1]
  X-ray crystal structure, soaked (1.55 Å): 4U62 (TSPyV VP1-3’SL)

## CC(=O)N[C@H]1[C@H](O[C@@H]2[C@H](O[C@]3(C(=O)O)C[C@H](O)[C@@H](NC(C)=O)[C@H]([C@H](O)[C@H](O)CO)O3)[C@@H](O)[C@H](O[C@H]3[C@H](O)[C@@H](O)C(O)O[C@@H]3CO)O[C@@H]2CO)O[C@H](CO)[C@H](O)[C@@H]1O[C@@H]1O[C@H](CO)[C@H](O)[C@H](O)[C@H]1O (stereo partly drawn) [GM1 glycan]
TSPyV VP1 [2]
  X-ray co-crystal structure (1.50 Å); also STD NMR: 4U60 (TSPyV VP1-GM1 glycan)

## CC(=O)N[C@H]1[C@H]([C@H](O)[C@H](O)CO)O[C@@](OC[C@H]2O[C@@H](O[C@H]3[C@H](O)[C@@H](O)C(O)O[C@@H]3CO)[C@H](O)[C@@H](O)[C@H]2O)(C(=O)O)C[C@@H]1O (stereo partly drawn) [6’SL]
TSPyV VP1 [3]
  X-ray co-crystal structure (1.65 Å): 4U61 (TSPyV VP1-6’SL)
